Source: publication PMC12624727, “Benzodeazaoxaflavin Sirtuin Inhibitors Inhibit Schistosoma mansoni Sirt2 and Cause Phenotypic Changes and Lethality in Schistosomula and Adult Worm Stages” (ACS Infectious Diseases, 2025)
Where two headings read alike, the source gives them in different places.

How the values were obtained:
SmSirt2 = SmSirt2 (Schistosoma mansoni, UniProt T1VXA1); assay: In vitro SmSirt2 inhibition assay, homogeneous fluorescence-based, ZMAL substrate; type: biochemical; details: for IC50: read-out: IC50 SmSirt2, ZMAL substrate
Sequence of SmSirt2 (T1VXA1 entry or part of it): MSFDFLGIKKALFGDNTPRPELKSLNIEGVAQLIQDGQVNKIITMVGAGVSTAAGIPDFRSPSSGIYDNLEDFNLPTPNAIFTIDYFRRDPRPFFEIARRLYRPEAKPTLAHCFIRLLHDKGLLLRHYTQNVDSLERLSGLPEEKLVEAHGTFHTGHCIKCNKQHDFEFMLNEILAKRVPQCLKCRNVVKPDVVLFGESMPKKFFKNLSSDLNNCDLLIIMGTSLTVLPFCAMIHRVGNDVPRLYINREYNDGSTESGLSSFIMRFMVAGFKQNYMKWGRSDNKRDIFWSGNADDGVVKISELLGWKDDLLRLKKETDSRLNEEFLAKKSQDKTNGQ
Procedure: We first improved the synthetic method to obtain most of the BDFs analogues 1–12 (Figure ), and we tested them against recombinant SmSirt2 using a homogeneous, fluorescent-based in vitro assay with (Z)-(Ac)-Lys-7-amino-4-methylcoumarin (ZMAL) as the substrate.
The BDF4 compounds 1–12 were tested for their inhibitory activity against SmSirt2 using a fluorescence-based assay with ZMAL as the substrate. Their activity against hSirt2 has been previously reported. ,
For the screening of compounds 1–12, a homogeneous fluorescence-based assay previously described by some of us was used to determine SmSirt2 activity.

[1] = test system: S. mansoni newly transformed schistosomula (NTS), Liberian strain; assay: NTS (Liberian strain) in vitro viability assay; type: cell-based, Schistosoma mansoni; details: for percentage of reduction of NTS viability, 72 h: SD in brackets; for IC50: 72 h, Liberian strain
hSirt2 = details: cited from earlier work
[2] = test system: cytochrome c release in S. mansoni (Puerto Rican strain) worms; assay: Western blot of cytosolic cytochrome c in worm extracts; type: cell-based, Schistosoma mansoni; details: 1 μM, 24 h (legend of Figure 5)
Procedure: To determine if the Sirt2 inhibitors trigger apoptosis through the cytochrome c pathway, we examined cytochrome c release from mitochondria.
5 Effects of selected Sirt2 inhibitors on cytosolic cytochrome c expression. Representative immunoblots of cytosolic protein fractions extracted from S. mansoni adult worm pairs are shown. The worms were treated with the indicated Sirt2 inhibitors (10 μM) for 48 h. DMSO (vehicle), TSA (1 μM, 24 h), a HDAC pan-inhibitor, and salermide (Sal 25 μM, 48 h), a Sirt1/Sirt2 inhibitor, were used as controls. The α-tubulin signal was used for normalization. Quantitation of cytochrome c relative to the vehicle-treated sample is shown.
Ten pairs of adult parasites were treated with selected Sirt inhibitors for either 24 or 48 h at partially lethal and sublethal concentrations. The concentrations of compounds were chosen based on the viability curve. Positive controls in the experiments included TSA, a pan-HDAC inhibitor, and salermide, a hSirt1/2 inhibitor, while DMSO (vehicle) served as negative control. Parasites were lysed in a 0.5% Triton PBS buffer by strokes, and the lysates were then centrifuged to collect the soluble fractions (cytosol). The insoluble fractions were extracted with 0.25 N HCl at +4 °C for 18 h, followed by neutralization with 1/10 volume of 2 N NaOH. Samples were analyzed using 15% SDS-PAGE and Western blotting. […]

[3] = test system: adult S. mansoni (Liberian strain) worm pairs; assay: Adult worm (Liberian strain) in vitro viability assay; type: cell-based, Schistosoma mansoni; details: for adult worms' percentage of viability reduction, 72 h: SD in brackets; for IC50: Schistosoma mansoni, 72 h, Liberian strain
[4] = test system: S. mansoni (Puerto Rican) worm pairs; assay: Worm pairing of adult worm pairs (Puerto Rican strain); type: cell-based, Schistosoma mansoni; details: % of DMSO control
[5] = test system: S. mansoni (Puerto Rican) worm pairs; assay: Egg laying by adult worm pairs (Puerto Rican strain); type: cell-based, Schistosoma mansoni; details: % of DMSO control
[6] = test system: adult S. mansoni (Puerto Rican strain) worm pairs; details: for reduction of viability of adult worm pairs: concentration not given, Puerto Rican strain; for viability of adult worm pairs after recovery: both, Puerto Rican, Schistosoma mansoni
[7] = ref footnote b (reference number not given)

Row | Compound | IC50 (SmSirt2) [µM] | percentage of reduction of NTS viability, 72 h ([1]; 20 μM) | IC50 (hSirt2; [7]) [µM] | percentage of reduction of NTS viability, 72 h ([1]; 1 μM) | percentage of reduction of NTS viability, 72 h ([1]; 10 μM) | IC50 ([1]; Schistosoma mansoni) [nM] | adult worms' percentage of viability reduction, 72 h ([3]; 10 μM) | adult worms' percentage of viability reduction, 72 h ([3]; 20 μM) | IC50 [3] [µM] | percentage of reduction of NTS viability, 72 h ([1]; 0.1 μM) | IC50 [1] [nM] | % worm pairing ([4]; 1 μM, 24 h, single experiment) [%] | % worm pairing ([4]; 1 μM, 48 h, single experiment) [%] | % worm pairing ([4]; 1 μM, 72 h, single experiment) [%] | % worm pairing ([4]; 10 μM, 24 h, SD in brackets) | % worm pairing ([4]; 10 μM, 48 h, SD in brackets) | % worm pairing ([4]; 10 μM, 72 h, SD in brackets) | % worm pairing ([4]; 20 μM, 24 h, SD in brackets) | % worm pairing ([4]; 20 μM, 48 h, SD in brackets) | % worm pairing ([4]; 20 μM, 72 h, SD in brackets) | also measured
1 | CCCCn1c(=O)nc2oc3ccc4ccccc4c3cc-2c1=O [Compound 6, 10-Butyl-9H-benzo[5,6]chromeno[2,3-d]pyrimidine-9,11(10H)-dione] | 7.8 ± 0.8 | 34 (1) % | 16.9 ± 0.8 |  |  |  |  |  |  |  |  |  |  |  |  |  |  |  |  |  | 
2 | CC(/C=C/C(=O)NO)=C\[C@@H](C)C(=O)c1ccc(N(C)C)cc1 [TSA] |  |  |  |  |  |  |  |  |  |  |  |  |  |  |  |  |  |  |  |  | cytosolic cytochrome c level [2]: increased levels of cytochrome c
3 | CCn1c(=O)nc2oc3ccc4ccccc4c3cc-2c1=O [Compound 3, 10-Ethyl-9H-benzo[5,6]chromeno[2,3-d]pyrimidine-9,11(10H)-dione] | 12.6 ± 2.2 | 100 (0) % | 30 ± 1.2 | 40 (0) % | 100 (0) % | 1030 | 49 (0) % | 80.3 (5.4) % | > 10 |  |  |  |  |  |  |  |  |  |  |  | 
4 | C=CCn1c(=O)nc2oc3ccc4ccccc4c3cc-2c1=O [Compound 4, 10-Allyl-9H-benzo[5,6]chromeno[2,3-d]pyrimidine-9,11(10H)-dione] |  | 100 (0) % | 10.8 ± 0.3 | 100 (0) % | 100 (0) % | ~100 |  | 94.4 (0) % | 2.03 | 20 (0) % | 120 | 100 | 100 | 100 | 90 (14) % | 90 (14) % | 90 (14) % | 0 (0) % | 20 (0) % | 60 (0) % | inhibition at 50 µM (SmSirt2): 53.9%; adult worms' percentage of viability reduction, 72 h ([3]; 1 μM): 40.7 (3.7) %; % egg laying ([5]; 1 μM, 24 h, single experiment): 72%; % egg laying ([5]; 1 μM, 48 h, single experiment): 68%; % egg laying ([5]; 1 μM, 72 h, single experiment): 95%; % egg laying ([5]; 10 μM, 24 h, SD in brackets): 61(6) %; % egg laying ([5]; 10 μM, 48 h, SD in brackets): 82 (12) %; % egg laying ([5]; 10 μM, 72 h, SD in brackets): 79 (19) %; % egg laying ([5]; 20 μM, 24 h, SD in brackets): 11 (6) %; % egg laying ([5]; 20 μM, 48 h, SD in brackets): 7 (5) %; reduction of viability of adult worm pairs ([6]; 24 h): approximately 80%; viability of adult worm pairs after recovery ([6]; 72 h): 50%
5 | O=C1NC(=O)N(c2ccccc2)C(=O)/C1=C/c1c(O)ccc2ccccc12 [Compound 10] |  |  |  |  |  |  |  |  |  |  |  |  |  |  |  |  |  |  |  |  | inhibition at 50 µM (SmSirt2): 3.5%; inhibition of SmSirt2 in words (SmSirt2): failed to inhibit; % inhibition at 50 μM hSirt2 (hSirt2; 50 μM, ref footnote a (reference number not given)): 0.7% ^a; inhibition of hSirt2 in words (hSirt2; ref not printed (previously reported)): failed to inhibit
6 | Cn1c(=O)nc2oc3ccc4ccccc4c3cc-2c1=O [Compound 2, 10-Methyl-9H-benzo[5,6]chromeno[2,3-d]pyrimidine-9,11(10H)-dione] | 2.3 ± 0.1 | 85.7 (3.6) % | 11.2 ± 0.3 | 43.8 (2.1) % | 61.5 (3.8) % | 1500 | 37.3 (3.9) % | 82.1 (3.6) % | > 10 | 20.8 (0) % |  |  |  |  |  |  |  |  |  |  | 
7 | O=c1nc2oc3ccc4ccccc4c3cc-2c(=O)[nH]1 [Compound 1, 7-Oxa-8,10-Diazabenzo[a]anthracene-9,11-dione] | 3.8 ± 0.3 | 100 (0) % |  | 90 (1.7) % | 100 (0) % | ~200 | 27.5 (2) % | 85.7 (7.2) % | > 10 | 16.7 (0) % | 250 | 100 | 100 | 100 | 100 (0) % | 100 (0) % | 100 (0) % | 100 (0) % | 100 (0) % | 100 (0) % | selectivity toward SmSIRT2 over the human isoform (SmSirt2; SmSirt2 vs hSirt2): selectively active against the parasite enzyme; % egg laying ([5]; 1 μM, 24 h, single experiment): 79%; % egg laying ([5]; 1 μM, 48 h, single experiment): 90%; % egg laying ([5]; 1 μM, 72 h, single experiment): 116%; % egg laying ([5]; 10 μM, 24 h, SD in brackets): 93 (27) %; % egg laying ([5]; 10 μM, 48 h, SD in brackets): 97 (14) %; % egg laying ([5]; 10 μM, 72 h, SD in brackets): 122 (14) %; % egg laying ([5]; 20 μM, 24 h, SD in brackets): 56 (22) %; % egg laying ([5]; 20 μM, 48 h, SD in brackets): 75 (19) %; % egg laying ([5]; 20 μM, 72 h, SD in brackets): 109 (47) %; reduction of viability of adult worm pairs ([6]; 72 h): 20%; IC50 (hSirt2; ref footnote a (reference number not given)): > 50 µM
8 | CCCn1c(=O)nc2oc3ccc4ccccc4c3cc-2c1=O [Compound 5, 10-Propyl-9H-benzo[5,6]chromeno[2,3-d]pyrimidine-9,11(10H)-dione] | 8 ± 0.7 | 100 (0) % | 12.5 ± 0.5 | 100 (0) % | 100 (0) % | ~100 |  | 91.7 (2.8) % | 3.35 | 24 (0) % | 120 | 100 | 100 | 100 | 90 (14) % | 100 (14) % | 100 (14) % | 0 (0) % | 10 (14) % | 0 (0) % | adult worms' percentage of viability reduction, 72 h ([3]; 1 μM): 25.9 (3.7) %; % egg laying ([5]; 1 μM, 24 h, single experiment): 104%; % egg laying ([5]; 1 μM, 48 h, single experiment): 94%; % egg laying ([5]; 1 μM, 72 h, single experiment): 144%; % egg laying ([5]; 10 μM, 24 h, SD in brackets): 55 (15) %; % egg laying ([5]; 10 μM, 48 h, SD in brackets): 73 (33) %; % egg laying ([5]; 10 μM, 72 h, SD in brackets): 75 (7) %; % egg laying ([5]; 20 μM, 24 h, SD in brackets): 12 (16) %; % egg laying ([5]; 20 μM, 48 h, SD in brackets): 11 (14) %; % egg laying ([5]; 20 μM, 72 h, SD in brackets): 13 (10) %; reduction of viability of adult worm pairs ([6]; 24 h): approximately 80%; viability of adult worm pairs after recovery ([6]; 72 h): 40%
